# According to patent publication US12569468B2, “Use of palovarotene in treatment against HBV virus” (YANG SHENG TANG COMPANY, LTD., priority 2020, dated 2026):
# What was measured:
# [1] = system: HBV; test: Therapeutic effect on HepG2-hNTCP 2B1 infected by HBV (drug from day 6 after infection); type: cell-based, hepatitis B virus; conditions: drug treatment from 6 days after HBV infection to day 12, Palovarotene at high concentrations (p<0.05), ETV 1 μM, vs blank group
# Method: This experiment was carried out in a 24-well culture plate. […] About 1.5×10^5 HepG2-hNTCP 2B1 cells were plated in each well, and 500 μL of medium B was added to each well. After the cells adhered, medium A was used for replacement to perform the induction with Doxycycline during the whole experiment.
# 4 Days after the induction with Doxycycline, HBV infection was performed, and the amount of HBV in each well was 100 MOI. Before infection, HBV was diluted in medium C to obtain HBV solution, and the infection volume was 250 μL per well. During infection, the cell supernatant was first removed by suction, the HBV solution was added to the cells, and the cells were incubated for 24 hours, then the supernatant was collected as the sample of Day 0. Then the cells were washed three times with PBS, and fresh medium C was used for replacement. After that, the supernatant was collected every two days for detection, fresh medium C was used for replacement. On the 6th day, fresh drug-containing medium A was used for replacement to start drug treatment, then the supernatant was collected every two days for detection, and fresh drug-containing medium A was used for replacement, until the 12th day, all the supernatant and cells were collected for relevant detection. The detection items included HBsAg, HBeAg, HBV DNA, HBV cccDNA, and for the detection method, please refer to Example 1.
# [2] = system: human primary hepatocytes; test: Safety assessment, CCK-8 cell activity, human primary hepatocytes; type: cell-based; conditions: 1 μM, 5 μM and 25 μM, 6 days treatment
# Method: This experiment was carried out in a 96-well culture plate, with 8×10^4 corresponding cells plated in each well, and the corresponding medium volume was 100 μL, in which each drug to be tested in the HepG2-hNTCP 2B1, HepaRG M14A and primary hepatocyte experimental groups had three final concentrations of 1 μM, 5 μM and 25 μM, each drug to be tested in the HepAD38 cell experimental group had two final concentrations of 1 μM and 5 μM (the drug was diluted with the corresponding medium to the final concentrations, specifically please refer to Example 1, Example 2, Example 4 and Example 5), and to the blank group the same volume of culture medium without drug was added. After the cells had grown to a suitable density, drug was added to perform treatment for 6 days, during which, the medium was changed every two days with fresh drug-containing medium. After the drug treatment, 110 μL of medium containing Beyotime CCK-8 cell activity detection reagent (purchased from Beyotime, Art. No. C0038) (the volume ratio of medium to CCK-8 reagent was 100:10) was used for replacement, the cells were incubated at 37° C. for 30 min, and then all the supernatant was collected for detection of absorbance. The absorbance value was read on PHOMO microplate reader purchased from Zhengzhou Autobio.
# [3] = system: HBV; test: Therapeutic effect in high copy replication model HepAD38; type: cell-based, hepatitis B virus; conditions: 5 μM
# Source text: HepAD38 is a hepatoma cell line (D genotype) that stably integrates the HBV genome, it expresses HBV under conditions that may be regulated with tetracycline. […] The HepAD38 has a DNA level about 10 times that of HepG2.2.15, and thus is a high-copy HBV in vitro replication cell model (for the construction method of this cell model, please refer to: Ladner S K, Otto M J, Barker C S, et al. Inducible expression of human hepatitis B virus (HBV) in stably transfected hepatoblastoma cells: a novel system for screening potential inhibitors of HBV replication. Antimicrob Agents Chemother. 1997; 41(8):1715-1720.).
# This experiment was carried out in a 24-well culture plate. […] About 4×10^5HepAD38 cells were plated in each well, 500 μL of medium G containing tetracycline hydrochloride (Tetracycline) was added to each well, Day 0 was set 48 h after the cells were plated, and the medium G containing tetracycline hydrochloride (Tetracycline) was removed at the same time, fresh drug-containing medium F was used for replacement, and then fresh drug-containing medium F was used for replacement every two days until the 8th day, and the levels of HBsAg in the cell supernatant and intracellular HBV DNA were detected on the 8th day. For the method for detection, please refer to Example 1.
smiles,measurement,setting,value
CC1(C)CCC(C)(C)c2cc(Cn3cccn3)c(/C=C/c3ccc(C(=O)O)cc3)cc21 [Palovarotene],HBeAg,[1],significant inhibitory effect
same,level of HBV DNA,[1],significantly reduce
same,level of HBV cccDNA,[1],significantly reduce
same,CCK-8 absorbance value (cell activity) vs blank group,[2],not significantly different
same,surface antigen production (HBsAg in cell supernatant),"[3]; day 8, p<0.01",significant inhibitory effect
same,HBV DNA (intracellular),"[3]; day 8, p<0.05",significant inhibitory effect
